In PMC5770433, “A new group of synthetic phenolic-containing amphiphilic molecules for multipurpose applications: Physico-chemical characterization and cell-toxicity study” (Scientific Reports, 2018):
Where “and” joins values, the source holds several entries; their conditions need not be identical. Equal entries are not always repeated.

What was measured:
[1] = Creaming stability (creaming index) of 30% fish oil-in-water emulsions; assay type: physicochemical; settings: 30% fish oil-in-water emulsion, storage at 5 °C, 7 days
Procedure: (§1) The synthetic compounds were evaluated as emulsifiers for fish oil-in-water emulsions and compared to commercial DATEM. Emulsions consisting of 30.0% fish oil were prepared using 1.5 mL (0.1 M) of emulsifier solutions in phosphate buffer (pH 7.0). Coarse emulsions were first created by homogenization of lipid and aqueous phases (PRO250, PRO Scientific, Oxford, USA) at high speed for two minutes at room temperature. Further reduction particle size was achieved by use of a probe sonicator (Branson sonifier 250, Branson ultrasonics, Danbury, US) for a period of 3 min.
To examine their creaming stability, duplicate emulsions were transferred to clear, screw-capped 15 mL vials (diameter 1.8 cm) and stored at 5 °C. By aid of daily digital photographs, the phase separation in each emulsion was monitored over 7 days. The extent of creaming was characterized by the creaming index (CI) according to Equation (2), where HA is the height of the lower, aqueous phase, and HE is the total height of emulsion[30]).1 %CI=HA/HE×100

[2] = Temp-ramp FT-IR determination of lateral lipid chain packing; assay type: physicochemical; settings: FT-IR CH2 rocking region, 28 °C
Procedure: Fourier transform infrared spectroscopy (FT-IR) was applied to determine the molecular organization of the amphiphilic lipids. Spectra were recorded using an ATR-FTIR (PIKE, Madison, WI; Bruker, Ettlingen, Germany). The synthesized compounds were dried under low pressure over night, and then pressed onto a ZnSe ATR crystal mounted in a trough plate. […] Spectra were collected with a spectral resolution of 4 cm^−1 with 8 scans over the range of 3500–650 cm^−1. The FTIR spectra were analyzed by using MicroCal Origin 9.0 software.

[3] = Lipid oxidation in fish oil-in-water emulsions (TBARS assay); settings: relative to emulsions with commercial DATEM, after 7 days (1 week) of storage
Procedure: as §1
The ability of the new emulsifiers to inhibit lipid oxidation in emulsions was evaluated using Thiobarbituric acid-reactive species (TBARS) assay. TBARS were used to measure the formation of malondialdehyde, a major product of lipid oxidation, in emulsions after one week of storage. A solution of TCA-TBA-HCl was prepared by mixing 15 g of TCA, 375 mg TBA, 1.76 ml 12 N HCl, and 82.9 ml water. […] of this solution was mixed with 20 µl of the emulsion sample previously in 1 ml of distilled water. Thereafter, the mixture was heated at 100 °C for 15 min, cooled to room temperature within 10 min under a running tap water, and centrifuged at 2000×g for 15 min[22]. TBA formed colored complexes with the secondary oxidation products, which were detected in a UV-visible spectrophotometer (Cary 50Bio, Varian, Australia) at 532 nm. The relative degree of oxidation in each emulsion was calculated with respect to the degree of oxidation in emulsions with commercial DATEM, according to Equation (3), where AS is the absorbance of samples with added stabilizer, and A0 is the absorbance of samples with no added emulsifier. Measurements were taken on duplicate emulsion samples.2 Oxidation(%)=AS/AO×100

[4] = Critical micelle concentration by pyrene fluorescence method; assay type: physicochemical; settings: in water
Procedure: Critical Micelle Concentration (CMC) values of the synthetic compounds were determined by pyrene fluorescence method[28] using a Varian Cary Eclipse Fluorescence spectrometer (Agilent Technology, California, USA). The respective solutions were prepared using water previously saturated with pyrene (1 µM final concentration) in different concentrations (0.000001, 0.00001, 0.0001, 0.001, 0.01, 0.1, 1, 2.5, 5, 10, 15, 20 mM). Emission spectra of pyrene were obtained by exciting the samples at 334 nm. The fluorescence intensity ratio of I1/I3 (I1 = 373 nm, I3 = 383 nm) was plotted against sample solution concentration. The concentration at which the first break occurs was referred as the CMC value of the compound in water. Measurements were determined in triplicate.

[5] = Atomic force microscopy of Langmuir-Blodgett films on mica; assay type: physicochemical; settings: film transferred to mica at ~22 mN/m
Procedure: (§2) Langmuir-Blodgett studies was carried out for compound C14, being the ultimate compound with both surface active and antioxidant properties, according to the method of Correa et al.[29] with slight modications. Experiments were performed in aqueous solutions at neutral pH. Briefly, 20 µl of 2 mg/mL solution of C14 in chloroform:methanol (9:1, v/v) was applied to the aqueous phase and allowed to evaporate for a period of 20 min. Thereafter, the barriers were compressed at a constant rate of ~9 Å/ (chain min) until film collapsed. After stable conditions were attained, deposition of the corresponding film was carried out onto a hydrophilic mica support at a pressure just before film collapsed. The deposited monolayers on mica were left to air dry overnight. AFM images were acquired at ambient conditions by air tapping mode using a silicon tip on a micro cantilever (Olympus Inc., Japan) with a spring constant of 26 N/m and resonant frequency of 300 kHz. All measurements were performed in the center of the sample. Analyses were done in duplicates.

[6] = Langmuir isotherm of monolayer; assay type: physicochemical; settings: aqueous subphase, neutral pH
Procedure: as §2

Row | Structure (SMILES) | Creaming index (CI) [1] [%] | Lipid packing mode [2] | Relative oxidation in emulsions (as TBARS) [3] [%] | Critical micelle concentration (CMC) [4] [mM] | Double-layer film thickness [5] | Monolayer film thickness [5] [nm] | Surface pressure at monolayer collapse [6] [mN/m] | melting point [°C]
1 | CCCCCCCCCCCC(=O)OCC(O)COC(=O)C(CC(=O)O)OC(=O)/C=C/c1ccc(OC)c(OC)c1 (stereo not shown) [C12] | 0 | Hexagonal |  |  |  |  |  | 
2 | CCCCCCCCCCCCCC(=O)OCC(O)COC(=O)C(CC(=O)O)OC(=O)/C=C/c1ccc(O)c(O)c1 (stereo not shown) [C14a] | 0 | Hexagonal | 19.26 ± 0.05 |  |  |  |  | 
3 | CCCCCCCCCC(=O)OCC(O)COC(=O)C(CC(=O)O)OC(=O)/C=C/c1ccc(OC)c(OC)c1 (stereo not shown) [C10] | 10.35 | Hexagonal |  | 5 |  |  |  | 
4 | CCCCCCCCCCCCCC(=O)OCC(O)COC(=O)C(CC(=O)O)OC(=O)/C=C/c1ccc(OC)c(OC)c1 (stereo not shown) [C14] | 0 | Hexagonal |  |  | 5.2 nm and 6.7 nm | 2.3 | 39 | 
5 | CCCCCCCCCCCCCCCC(=O)OCC(O)COC(=O)C(CC(=O)O)OC(=O)/C=C/c1ccc(OC)c(OC)c1 (stereo not shown) [C16] | 0 | Hexagonal |  |  |  |  |  | 
6 | CCCCCCCCCCCC(=O)OCC(O)COC(=O)C(CC(=O)O)OC(=O)/C=C/c1ccc(O)c(O)c1 (stereo not shown) [C12a] | 0 | Hexagonal | 25.72 ± 0.03 |  |  |  |  | 
7 | CCCCCCCCCCCCCCCC(=O)OCC(O)COC(=O)C(CC(=O)O)OC(=O)/C=C/c1ccc(O)c(O)c1 (stereo not shown) [C16a] | 0 | Hexagonal | 39.04 ± 0.02 |  |  |  |  | 
8 | CCCCCCCCCCCCCCCCCC(=O)OCC(O)COC(=O)C(CC(=O)O)OC(=O)/C=C/c1ccc(OC)c(OC)c1 (stereo not shown) [C18] | 37.2 | Orthorhombic |  | 0.01 |  |  |  | 38
9 | CCCCCCCC(=O)OCC(O)COC(=O)C(CC(=O)O)OC(=O)/C=C/c1ccc(OC)c(OC)c1 (stereo not shown) [C8] | 15.1 | Hexagonal |  | 10 |  |  |  | 
